According to article PMC9143527, “A Novel Strategy for Regulating mRNA’s Degradation via Interfering the AUF1’s Binding to mRNA” (Molecules, 2022):

Legend:
[1] = biological target: T1, p37AUF1 (AUF1, hnRNP D) (Homo sapiens, UniProt Q14103); assay: SPR (Biacore 8K, CM5 chip, amine coupling); format: binding; details: 20 mM PB pH 7.4 at immobilization; 5% DMSO; compound at 0-80 uM
T1 construct: gene HNRNPD; recombinant purified p37 isoform; expression details and tags only in supplement
T1 sequence (Q14103 2-287 isoform Q14103-4): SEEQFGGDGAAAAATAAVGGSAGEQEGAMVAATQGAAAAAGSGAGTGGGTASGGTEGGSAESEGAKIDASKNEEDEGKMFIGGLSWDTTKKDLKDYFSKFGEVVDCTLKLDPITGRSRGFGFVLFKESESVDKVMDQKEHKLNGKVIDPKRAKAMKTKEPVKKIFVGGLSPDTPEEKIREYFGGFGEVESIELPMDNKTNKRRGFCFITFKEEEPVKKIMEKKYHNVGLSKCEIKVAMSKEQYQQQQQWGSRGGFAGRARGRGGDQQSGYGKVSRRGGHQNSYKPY

[2] = biological target: T1, p37AUF1 (AUF1, hnRNP D); assay: REMSA, inhibition of AUF1-RNA complex formation; format: binding; details: 750 nM AUF1, 250 nM FAM-labelled TNF ARE RNA; 10 mM Tris-HCl pH 8.0, 50 mM KCl, 2 mM DTT, 0.5 mM EDTA; on ice
[3] = biological target: T2, AUF1 (endogenous, CETSA) (Homo sapiens, UniProt Q14103); assay: CETSA, Western blot; format: cell-based; details: HepG2, SK-MEL-2, HCT-116 cells; 1 h treatment at 1, 3.5 or 6 uM
T2 construct: gene HNRNPD; endogenous AUF1 in intact cells, detected by Western blot
T2 sequence (Q14103 2-355): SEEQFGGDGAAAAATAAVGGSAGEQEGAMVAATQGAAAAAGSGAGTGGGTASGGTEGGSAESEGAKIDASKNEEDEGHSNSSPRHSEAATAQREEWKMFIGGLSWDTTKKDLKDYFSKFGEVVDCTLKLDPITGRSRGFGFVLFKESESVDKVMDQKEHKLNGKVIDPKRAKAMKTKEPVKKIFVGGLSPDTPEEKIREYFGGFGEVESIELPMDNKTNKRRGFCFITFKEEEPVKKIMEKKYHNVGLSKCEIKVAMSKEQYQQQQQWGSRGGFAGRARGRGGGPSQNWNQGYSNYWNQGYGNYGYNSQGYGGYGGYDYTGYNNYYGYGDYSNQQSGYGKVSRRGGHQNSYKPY

SMILES: Nc1nc(Nc2ccc(S(N)(=O)=O)cc2)nn1C(=O)c1c(F)cccc1F [JNJ-7706621]
- SPR (Biacore 8K, CM5 chip, amine coupling) [1]: only one compound, JNJ-7706621, showed a typical binding curve shape
- REMSA, inhibition of AUF1-RNA complex formation [2]: After adding increasing JNJ-7706621, the bands representing RNA-AUF1 complex weakened
- Tm [3]: The melting temperature fitted from the curve in each cell decreased when treated with JNJ-7706621
